The results in this text go back to patent US5873359A, “Methods and devices for treating pulmonary vasoconstriction and asthma” (The General Hospital Corporation, priority 1994, dated 1999).

The subject of this experiment is acute hypoxic pulmonary hypertension. Put plainly: Inhaled NO in lambs with pulmonary vasoconstriction induced by hypoxia. It is filed as in vivo. The method, then: Five awake lambs were studied during a period of breathing a hypoxic gas mixture to induce acute hypoxic pulmonary hypertension. Three lambs were excluded due to sepsis and heart failure. Hemodynamic monitoring techniques similar to those described above were used. We employed a non-rebreathing circuit containing a 25 liter reservoir bag and the Fi O2 was reduced to 0.06-0.08 to produce a mean PAP near 25 mm Hg at a Pa O2 near 30 mm Hg. Either 40 or 80 ppm NO was then added to the inspired gas mixture. Total gas flows were maintained at 35 l/min to prevent rebreathing due to hyperventilation. The inspired Fi O2 was monitored with n electrode (model 5590, Hudson Co., Temecala, Calif.) and pure CO2 was added to the inspired gas to maintain the end tidal CO2 concentration at 4.5-6%. Measurements of central hemodynamics and gas exchange were obtained at baseline, during hypoxia, and at 3 and 6 minutes of No breathing during hypoxia. Comparisons were performed using paired t-tests.

[1] abbreviates: hypoxia + 40-80 ppm NO, FiO2 0.06-0.08, n = 5, mean ± S.E.
[2] abbreviates: hypoxia + 40-80 ppm NO, n = 5, mean ± S.E.
[3] abbreviates: hypoxia + 40-80 ppm NO, n = 5, mean ± S.E., p < .01 vs hypoxia.

Consider `[N]=O` [NO, nitric oxide], for which, where the note is “40 or 80 ppm NO”, the “Pa O2 during hypoxia with vs without NO” value was “similar”, the “Pv O2 during hypoxia with vs without NO” value is recorded as “similar”, the “drop of mean PVR” value stood at 33% and the pulmonary artery pressure entry was “returned to control levels”. Under setting [1], the “Pa CO2” value came to 40.0 ± 2.7 mm Hg, the “PaO2” value came out at 31.1 ± 1.7 mm Hg, the “Pv O2” value is 19.8 ± 3.2 mm Hg and the pHa stood at 7.40 ± 0.03. In addition, under setting [2], the CO was 7.56 ± 0.79 L/min, the CVP was 2.8 ± 1.6 mm Hg, the LAP was determined as 4.2 ± 1.0 mm Hg and the SVR is listed as 13.7 ± 1.0 mm Hg/l/min. Under setting [3], the PAP stood at 18.7 ± 1.1 mm Hg, the PVR stood at 2.01 ± 0.35 mm Hg/l/min and the SAP is recorded as 106 ± 5 mm Hg.
